Laboratory results: paper PMC4444023 (PLoS ONE, 2015)
“And” between values parts separate entries of the source, which are not always exact repeats. Equal entries are not always repeated. One block for each compound: values may come before it.

Key:
human nSMase2 [1] = molecular target: T1, human nSMase2 (Homo sapiens, UniProt Q9NY59); experiment: 14C-SM confirmatory direct activity assay; assay type: biochemical; parameters: Full length human nSMase2 cDNA with a C-terminal Flag tag; host or cells: HEK293, stably transfected; crude cell lysate used as enzyme; settings: for IC50: [14C]-SM direct activity assay, human recombinant enzyme
T1 sequence (Q9NY59 1-655): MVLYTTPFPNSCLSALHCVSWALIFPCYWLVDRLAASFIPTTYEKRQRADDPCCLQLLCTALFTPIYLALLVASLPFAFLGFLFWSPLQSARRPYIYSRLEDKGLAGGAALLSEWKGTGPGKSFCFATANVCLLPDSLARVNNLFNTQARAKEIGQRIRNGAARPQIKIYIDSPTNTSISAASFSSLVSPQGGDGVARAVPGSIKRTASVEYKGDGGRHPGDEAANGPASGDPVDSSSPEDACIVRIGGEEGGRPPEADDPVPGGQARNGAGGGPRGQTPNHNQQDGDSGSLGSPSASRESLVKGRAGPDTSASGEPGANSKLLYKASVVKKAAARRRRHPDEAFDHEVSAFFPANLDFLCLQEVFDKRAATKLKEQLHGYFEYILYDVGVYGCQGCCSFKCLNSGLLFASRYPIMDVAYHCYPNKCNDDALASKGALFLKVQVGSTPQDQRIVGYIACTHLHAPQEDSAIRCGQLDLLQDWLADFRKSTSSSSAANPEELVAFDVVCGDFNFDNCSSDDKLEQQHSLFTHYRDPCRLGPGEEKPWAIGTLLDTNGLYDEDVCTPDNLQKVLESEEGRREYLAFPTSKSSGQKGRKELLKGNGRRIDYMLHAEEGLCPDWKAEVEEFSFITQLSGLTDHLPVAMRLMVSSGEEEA
Method: This assay was dependent on the direct hydrolysis of ^14C-labeled SM (^14C N-methyl groups in the phosphorylcholine) by human nSMase2. Optimization of assay conditions was accomplished according to the methods of Barbone et al.. Briefly, bovine [N-methyl-^14C]-sphingomyelin (specific activity […], Perkin Elmer) and phosphatidylinositol (Avanti Polar Lipids) were evaporated to dryness under a stream of nitrogen and resuspended at an equimolar concentration of 0.1 mM in water with 0.5% Triton X-100 (Sigma). The solution was vortexed for 30 min and then sonicated for 30 min. Assay conditions were as follows: 50 μl total volume per reaction, consisting of 20 μM SM, reaction buffer (100 mM Tris-HCl pH 7.5, 80 mM MgCl2, 0.1% Triton X-100); 10 μl cell lysate containing recombinant human nSMase2 (0.5–1 μg protein/assay) and 5 μl of compound in reaction buffer containing 10% DMSO. After 1 h incubation at 37°C the reaction was terminated by the addition of 30 μl of water and 175 μl of chloroform/methanol (2:1, v:v), followed by vigorous vortexing. Tubes were centrifuged for 5 min at 10,000 xg at room temperature to separate the organic bottom phase containing labeled SM and the aqueous upper phase containing ^14C-labeled-phosphorylcholine. An aliquot (50 μl) of the upper phase was transferred to a vial with 10 ml of scintillant and counted for 2 min on a Beckman LS-6000IC scintillation counter. Enzyme activity was directly proportional to the disintegrations per min (dpm) resulting from the generation of ^14C-phosphorylcholine.

[2] = tested on: rat primary hippocampal neurons; experiment: Hippocampal neuronal survival (Hoechst 33342); assay type: cell-based
Method: All animal procedures were approved by the Johns Hopkins University Animal Care and Use Committee. Primary hippocampal neurons were prepared from day 18 decapitated embryos of Sprague-Dawley rats following previously described methods. Cells were seeded on polyethyleneimine (PEI)-coated slides in 12-well plates and cultured between 14–21 days. […] After 18 h, cells were stained with 50 μg/ml Hoeschst 33342 for 20 min and then fixed with 4% paraformaldehyde for 30 min. The number of living and apoptotic cells was determined by fluorescence microscopy. A minimum of 500 cells were counted per treatment condition. Results were normalized to control untreated cells and were representative of at least two independent experiments conducted in triplicate. Statistical evaluation of the data was done by Student’s t-test.

[3] = tested on: rat primary cortical neurons; experiment: Lipid extraction and ceramide measurements (LC-MS/MS); assay type: cell-based
Method: Primary cortical neurons were prepared from embryonic day 18 Sprague-Dawley rats following previously described methods. […] A crude lipid extract from cortical neurons was obtained using a modified Bligh and Dyer procedure. Ceramide C12:0 (Avanti Polar Lipids) was included as an internal standard. The organic layers were dried in a nitrogen evaporator (Organomation Associates Inc.) and stored at -80°C. Dried organic layers were resuspended in methanol just prior to analysis. The detection and quantitation of individual ceramide species was performed on a high-performance liquid chromatography (HPLC) coupled electrospray ionization triple quadrupole mass spectrometer (API3000, AB Sciex Inc.) using settings similar to those described in previous studies. Samples were handled by a CTC PAL autosampler (LEAP Technologies Inc.) and injected into an HPLC (PerkinElmer) equipped with a reverse phase C18 column (Phenomex). […] The eluted sample was injected into the electrospray ionization source and detection of each ceramide species was conducted by multiple reaction monitoring. Spectral analysis was conducted using MultiQuant (AB Sciex Inc.), individually validated and normalized to the internal standard. Final data for each ceramide species in counts per second was expressed as the ratio of analyte/internal standard.

human nSMase2 [4] = molecular target: T1, human nSMase2; experiment: Fluorescence (Amplex red coupled) nSMase2 activity assay; assay type: biochemical; parameters: Full length human nSMase2 cDNA with a C-terminal Flag tag; crude cell lysate used as enzyme
Method: The production of the latter was coupled to a dephosphorylation reaction catalyzed by alkaline phosphatase (4 U/ml) to produce choline, followed by oxidation of choline by choline oxidase (0.1 U/ml) to produce betaine and H2O2, which in the presence of horseradish peroxidase (HRP, 1U/ml) and 50 μM Amplex red, generates the fluorescent molecule resorufin (Life Technologies). Substrate stock solution was prepared in 2% Triton X-100, vortexed and sonicated for 30 min. Reactions were carried out for 1 h at 37°C in 100 mM Tris-HCl pH 7.4, 10 mM MgCl2, 0.2% Triton X-100 and the generation of the fluorescent product was monitored by measuring relative florescence units (RFU) with excitation at 530 nm and emission at 590 nm (Fig 1). This assay was optimized for 384-well format (50 μl total volume per well) based on linearity of the enzymatic activity with respect to time, as well as substrate and enzyme concentrations. […] This fluorescence assay was used for compound screening and IC50 value determinations, based on duplicate eight-point dose response curves.

[5] = TNF-a: 100 ng/ml TNF-α for 2 min

- IC50 (human nSMase2 [1]): 2 ± 1 µM
Compound: O=c1[nH]c(=S)[nH]c(-c2ccc(Br)cc2)c1Cc1c(O)ccc2ccccc12 [compound 7]

- IC50 (human nSMase2 [1]): 7 ± 1 µM
Compound: O=c1[nH]c(=S)[nH]c(-c2cccc(Cl)c2)c1Cc1c(O)ccc2ccccc12 [compound 8]

- IC50 (human nSMase2 [1]): 6 ± 3 µM
Compound: O=c1[nH]c(=S)[nH]c(-c2ccccc2F)c1Cc1c(O)ccc2ccccc12 [compound 9]

- effect on human nSMase2 activity (human nSMase2 [4]; 20 μM SM/PS at equimolar concentration (S5 Fig)): did not significantly affect
Compound: phosphatidylserine

The remaining lines, values behind:

Compound: Cc1ccccc1-c1[nH]c(=S)[nH]c(=O)c1Cc1c(O)ccc2ccccc12 [compound 6]
- %Inhibition (human nSMase2 [1]; Log [compound] -4.0): 95.0% and 94.0%
- %Inhibition (human nSMase2 [1]; Log [compound] -5.0): 80.0% and 79.0%
- %Inhibition (human nSMase2 [1]; Log [compound] -6.0): 22.0% and 21.0%
- %Inhibition (human nSMase2 [1]; Log [compound] -7.0): 2.0% and 0.0%
- %Inhibition (human nSMase2 [1]; Log [compound] -8.0): -8.0% and -11.0%
- %Inhibition (human nSMase2 [1]; Log [compound] -9.0): -1.0% and -3.0%
- %Inhibition (human nSMase2 [1]; Log [compound] -10.0): -11.0% and -10.0%
- IC50 (human nSMase2 [1]): 3 µM

Compound: O=P(O)(O)C(O)(Cn1ccnc1)P(=O)(O)O [zoledronic acid, reference compound]
- neuron survival, Mean (normalized to control untreated cells) ([2]; 100 ng/ml IL1β 18 h, 10 µM compound): 84.88
- neuron survival, Mean (normalized to control untreated cells) ([2]; 100 ng/ml IL1β 18 h, 25 µM compound): 85.75
- neuron survival, Mean (normalized to control untreated cells) ([2]; 100 ng/ml TNFα 18 h, 10 µM compound): 80.07
- neuron survival, Mean (normalized to control untreated cells) ([2]; 100 ng/ml TNFα 18 h, 25 µM compound): 81.28

Compound: TNF-α
- Ceramide d18:1/16:0, ratio analyte/internal standard [3, 5]: 2.626 and 2.724 and 1.914 and 2.181 and 2.47 and 2.215
- Ceramide d18:1/18:0, ratio analyte/internal standard [3, 5]: 9.562 and 9.737 and 7.685 and 8.892 and 9.601 and 8.529
- Ceramide d18:1/20:0, ratio analyte/internal standard [3, 5]: 0.6563 and 0.629 and 0.4932 and 0.6036 and 0.6125 and 0.6685
- Ceramide d18:1/22:0, ratio analyte/internal standard [3, 5]: 0.2034 and 0.2174 and 0.1793 and 0.213 and 0.2196 and 0.1978
- Ceramide d18:1/24:0, ratio analyte/internal standard [3, 5]: 0.2705 and 0.2427 and 0.2002 and 0.2059 and 0.2011 and 0.2312
- Ceramide d18:1/24:1, ratio analyte/internal standard [3, 5]: 0.2934 and 0.2773 and 0.185 and 0.2472 and 0.2529 and 0.2866
- Dihexosylceramides d18:1/16:0, ratio analyte/internal standard [3, 5]: 0.0212 and 0.02618 and 0.02908 and 0.01607 and 0.02926 and 0.02318
- Dihexosylceramides d18:1/18:0, ratio analyte/internal standard [3, 5]: 0.1307 and 0.1534 and 0.1151 and 0.09786 and 0.1336 and 0.132
- Dihydroceramides d18:0/18:0, ratio analyte/internal standard [3, 5]: 0.1552 and 0.1446 and 0.1353 and 0.136 and 0.1435 and 0.1236
- Monohexosylceramides d18:1/16:0, ratio analyte/internal standard [3, 5]: 1.65E-01 and 1.78E-01 and 1.43E-01 and 1.25E-01 and 1.46E-01 and 1.28E-01
- Monohexosylceramides d18:1/18:0, ratio analyte/internal standard [3, 5]: 8.33E-01 and 9.27E-01 and 8.86E-01 and 8.09E-01 and 8.11E-01 and 9.45E-01
- Monohexosylceramides d18:1/20:0, ratio analyte/internal standard [3, 5]: 1.68E-01 and 1.71E-01 and 1.46E-01 and 1.34E-01 and 1.36E-01
- Monohexosylceramides d18:1/22:0, ratio analyte/internal standard [3, 5]: 6.26E-02 and 5.07E-02 and 4.08E-02 and 5.38E-02 and 5.08E-02 and 5.16E-02
- Monohexosylceramides d18:1/24:0, ratio analyte/internal standard [3, 5]: 4.46E-02 and 4.59E-02 and 3.01E-02 and 3.48E-02 and 3.50E-02 and 3.93E-02
- Monohexosylceramides d18:1/24:1, ratio analyte/internal standard [3, 5]: 9.28E-02 and 9.45E-02 and 8.80E-02 and 6.42E-02 and 8.57E-02 and 6.27E-02
- effect on long chain ceramide levels ([3]; rat primary cortical neurons): rapid increase

Compound: sphingomyelin [SM]
- enzymatic activity (human nSMase2 [4]; [SM] 3.91 µM): 212.26 RFU
- enzymatic activity (human nSMase2 [4]; [SM] 7.81 µM): 311.45 RFU
- enzymatic activity (human nSMase2 [4]; [SM] 15.63 µM): 459.12 RFU
- enzymatic activity (human nSMase2 [4]; [SM] 31.25 µM): 722.04 RFU
- enzymatic activity (human nSMase2 [4]; [SM] 62.50 µM): 1075.56 RFU
- enzymatic activity (human nSMase2 [4]; [SM] 125.00 µM): 1331.12 RFU
- enzymatic activity (human nSMase2 [4]; [SM] 250.00 µM): 1431.87 RFU
- enzymatic activity (human nSMase2 [4]; [SM] 500.00 µM): 1408.02 RFU
